According to paper PMC6901289 (Journal of medicinal chemistry, 2019):
Entries after “also recorded” stand apart in the source; their conditions may differ.

Tests used:
HCT116 cells = assay: Soft agar colony formation assay; assay type: cell-based, human; conditions: at a concentration of 10 μM and greater
SIRT2 [1] = target: T1, SIRT2 (Homo sapiens, UniProt Q8IXJ6); assay: LC-MS detection of covalent intermediate with NAD+ in the presence of SIRT2; assay type: biochemical; conditions: incubated with an excess of SIRT2 and NAD+
T1 sequence (Q8IXJ6 1-389): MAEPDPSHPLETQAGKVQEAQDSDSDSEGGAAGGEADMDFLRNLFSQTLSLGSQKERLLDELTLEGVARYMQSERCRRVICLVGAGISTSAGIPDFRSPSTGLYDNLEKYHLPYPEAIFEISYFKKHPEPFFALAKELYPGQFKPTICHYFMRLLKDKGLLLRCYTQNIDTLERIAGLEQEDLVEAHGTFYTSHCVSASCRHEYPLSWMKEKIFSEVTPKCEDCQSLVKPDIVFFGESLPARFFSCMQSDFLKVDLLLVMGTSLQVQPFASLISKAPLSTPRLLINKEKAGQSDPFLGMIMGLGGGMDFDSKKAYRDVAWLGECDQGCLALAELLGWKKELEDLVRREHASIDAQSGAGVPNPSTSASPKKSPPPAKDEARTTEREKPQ

[2] = system: α-tubulin acetylation in HCT116 cells; assay: α-tubulin acetylation by immunofluorescence; assay type: cell-based, human; conditions: six hours
HCT116 xenograft = HCT116 xenograft mice study; assay type: in vivo, NSG mice; conditions: 25 mg/kg intraperitoneal, every day
[3] = system: p53 acetylation in HCT116 cells; assay: p53 K382 acetylation by western blot; conditions: for acetyl p53 (K382) levels: HCT116, 25 μM inhibitor with 400 nM TSA, 6 hours; for dose dependence of acetyl p53 levels: HCT116, 10–50 μM inhibitor with Trichostatin A
[4] = Mouse body weight in xenograft study; assay type: in vivo, NSG mice; conditions: treatment groups of xenograft study, intraperitoneal
SIRT2 [5] = target: T1, SIRT2; assay: Enzyme IC50 assay, acetyl H3K9 peptide, liquid chromatography; assay type: biochemical; conditions: relative selectivity for SIRT2 over SIRT1, Table 1
SIRT1 = target: T2, SIRT1 (Homo sapiens, UniProt Q96EB6); assay: as above; assay type: biochemical; conditions: in vitro
T2 sequence (Q96EB6 1-747): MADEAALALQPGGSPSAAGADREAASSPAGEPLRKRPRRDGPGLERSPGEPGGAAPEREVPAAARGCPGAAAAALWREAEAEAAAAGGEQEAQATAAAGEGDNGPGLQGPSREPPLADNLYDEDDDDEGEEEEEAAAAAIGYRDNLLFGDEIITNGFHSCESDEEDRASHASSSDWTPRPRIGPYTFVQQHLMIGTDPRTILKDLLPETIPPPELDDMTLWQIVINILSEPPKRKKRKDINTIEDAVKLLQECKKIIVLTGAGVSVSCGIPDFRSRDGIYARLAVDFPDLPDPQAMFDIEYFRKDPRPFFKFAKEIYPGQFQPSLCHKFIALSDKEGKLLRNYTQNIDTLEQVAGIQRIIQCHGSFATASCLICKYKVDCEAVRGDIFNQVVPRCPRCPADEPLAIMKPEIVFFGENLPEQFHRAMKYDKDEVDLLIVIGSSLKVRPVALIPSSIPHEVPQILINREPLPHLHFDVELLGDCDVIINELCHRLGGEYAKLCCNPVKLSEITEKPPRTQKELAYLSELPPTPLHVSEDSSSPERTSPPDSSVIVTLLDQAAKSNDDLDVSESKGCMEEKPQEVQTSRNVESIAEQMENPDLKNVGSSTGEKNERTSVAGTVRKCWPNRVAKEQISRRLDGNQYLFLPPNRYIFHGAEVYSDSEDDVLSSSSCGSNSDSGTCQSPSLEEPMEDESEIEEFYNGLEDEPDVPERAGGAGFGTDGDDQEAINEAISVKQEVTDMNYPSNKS

| covalent inhibitor-ADP-ribose intermediate by LC-MS (SIRT2 [1]) | SIRT2/SIRT1 Selectivity (SIRT2 [5]) | inhibition of SIRT1 deacetylase activity (in words) (SIRT1) | SMILES | growth of HCT116 cells in soft agar (HCT116 cells) | α-tubulin acetylation ([2]; HCT116, 25 μM inhibitor) | α-tubulin acetylation ([2]; HCT116, 50 μM inhibitor) | tumor growth by volume and weight (HCT116 xenograft) | acetyl p53 (K382) levels [3] | dose dependence of acetyl p53 levels [3] | mouse body weight loss [4] |
| --- | --- | --- | --- | --- | --- | --- | --- | --- | --- | --- |
| detected |  |  | CCCCCCCCNC(=S)NCCCC[C@H](NC(=O)OCc1ccccc1)C(=O)Nc1ccccc1 [AF8, benzyl (S)-(6-(3-octylthioureido)-1-oxo-1-(phenylamino)hexan-2-yl)carbamate] | completely inhibited | extensive α-tubulin hyperacetylation; also recorded: increased α-tubulin acetylation | extensive α-tubulin hyperacetylation; also recorded: also increased α-tubulin acetylation | slightly decreased tumor growth by volume and weight but did not result in a statistically significant difference | did not increase the levels of acetyl p53; also recorded: did not noticeably increase p53 acetylation | did not increase acetyl p53 levels in a dose dependent manner | No significant weight loss |
|  | >1000 | no inhibition | CCCCCCCCCCNC(=S)NCCCC[C@H](NC(=O)OCc1ccccc1)C(=O)Nc1ccccc1 [AF10, Benzyl (S)-(6-(3-decylthioureido)-1-oxo-1-(phenylamino)hexan-2-yl)carbamate] | completely inhibited | extensive α-tubulin hyperacetylation; also recorded: increased α-tubulin acetylation | extensive α-tubulin hyperacetylation; also recorded: also increased α-tubulin acetylation |  | did not increase the levels of acetyl p53; also recorded: did not noticeably increase p53 acetylation | very slight increase in acetyl p53 | No significant weight loss |
|  | >1000 | no inhibition | CCCCCCCCCCCCNC(=S)NCCCC[C@H](NC(=O)OCc1ccccc1)C(=O)Nc1ccccc1 [AF12, Benzyl (S)-(6-(3-dodecylthioureido)-1-oxo-1-(phenylamino)hexan-2-yl)carbamate] |  |  |  |  |  |  |  |
|  |  |  | CCCNC(=S)NCCCC[C@H](NC(=O)OCc1ccccc1)C(=O)Nc1cccc(O)c1 [Compound C3, Benzyl (S)-(1-((3-hydroxyphenyl)amino)-1-oxo-6-(3-propylthioureido)hexan-2-yl)carbamate] |  | did not increase the acetylation of α-tubulin | did not increase the acetylation of α-tubulin |  | did not increase the acetylation of p53 |  |  |
|  |  |  | CCCCCNC(=S)NCCCC[C@H](NC(=O)OCc1ccccc1)C(=O)Nc1cccc(O)c1 [Compound C5, Benzyl (S)-(1-((3-hydroxyphenyl)amino)-1-oxo-6-(3-pentylthioureido)hexan-2-yl)carbamate] |  | slightly increased α-tubulin acetylation | increased α-tubulin acetylation; also recorded: more robustly increased acetylation |  | moderately increased the acetylation of p53; also recorded: moderately increased acetyl p53 levels |  |  |
|  |  |  | CCCCCCCCCCNC(=S)NCCCC[C@H](NC(=O)OCc1ccccc1)C(=O)Nc1cccc(O)c1 [Compound C10, Benzyl (S)-(6-(3-decylthioureido)-1-((3-hydroxyphenyl)amino)-1-oxohexan-2-yl)carbamate] |  | more strongly increased α-tubulin acetylation; also recorded: increased α-tubulin acetylation | increased α-tubulin acetylation |  | moderately increased the acetylation of p53; also recorded: moderately increased acetyl p53 levels | dose dependent increase in acetyl p53 levels; also recorded: dose dependent increase of acetyl p53 |  |
|  |  |  | CCCCCCCCCCCCCC(=S)NCCCC[C@H](NC(=O)OCc1ccccc1)C(=O)Nc1ccccc1 [TM, reference compound] |  | increased α-tubulin acetylation | also increased α-tubulin acetylation |  | did not increase the levels of acetyl p53 |  |  |
